Source: BindingDB's records for doi:10.1021/jm001055e (Friedrich-Alexander University, 2001)

Molecular target: T1, D(4) dopamine receptor (Homo sapiens, UniProt P21917)
T1 sequence (P21917 whole entry): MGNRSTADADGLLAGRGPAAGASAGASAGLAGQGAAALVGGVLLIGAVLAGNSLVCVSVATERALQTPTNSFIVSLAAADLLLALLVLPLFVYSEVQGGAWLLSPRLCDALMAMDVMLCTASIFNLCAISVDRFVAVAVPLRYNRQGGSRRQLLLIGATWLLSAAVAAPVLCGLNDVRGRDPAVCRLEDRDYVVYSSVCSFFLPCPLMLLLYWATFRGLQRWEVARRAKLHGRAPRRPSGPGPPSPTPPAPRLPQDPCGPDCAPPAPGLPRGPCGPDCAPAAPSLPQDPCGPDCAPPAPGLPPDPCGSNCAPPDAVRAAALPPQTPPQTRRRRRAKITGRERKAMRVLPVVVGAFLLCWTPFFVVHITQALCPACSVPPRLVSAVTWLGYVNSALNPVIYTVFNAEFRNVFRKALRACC
Assay: Ability to displace [3H]spiperone from dopamine receptor D4.4 expressed in CHO-K1 cells

SMILES | Ki [nM]
CCN1CCN(Cc2cnn3ccccc23)CC1 | 23900
FC(F)(F)c1cccc(N2CCN(Cc3cnn4ccccc34)CC2)c1 | 1.91
Clc1ccc(N2CCN(Cc3ccccc3)CC2)cc1 | 251
Clc1cccc(N2CCN(Cc3cnn4ccc5ccccc5c34)CC2)c1 | 794
Clc1ccc(N2CCN(Cc3cc[nH]c3)CC2)cc1 | 38.9
Clc1ccc(N2CCN(Cc3cnn4c(I)cccc34)CC2)cc1 | 5.01
Clc1cccc(N2CCN(Cc3cnn4c3ccc3ccccc34)CC2)c1 | 218
Clc1ccc(N2CCN(Cc3ccc[nH]3)CC2)cc1 | 26.3
C#Cc1ccc(N2CCN(Cc3cnn4ccccc34)CC2)cc1 | 4.37
Clc1ccc(N2CCN(Cc3cnn4ccccc34)CC2)cc1Cl | 5.62
Fc1ccc(N2CCN(Cc3cnn4ccccc34)CC2)cc1 | 20
Clc1ccc(N2CCN(Cc3cc4ccccc4[nH]3)CC2)cc1 | 18.2
OCc1ccc2c(CN3CCN(c4ccccc4)CC3)cnn2c1 | 19.5
Cc1cccn2ncc(CN3CCN(c4ccc(Cl)cc4)CC3)c12 [3-[4-(4-Chloro-phenyl)-piperazin-1-ylmethyl]-4-methyl-pyrazolo[1,5-a]pyridine] | 50.1
C#Cc1cccc2c(CN3CCN(c4ccc(Cl)cc4)CC3)cnn12 [3-[4-(4-Chloro-phenyl)-piperazin-1-ylmethyl]-7-ethynyl-pyrazolo[1,5-a]pyridine] | 1.23
Cc1cccc2c(CN3CCN(c4ccc(Cl)cc4)CC3)cnn12 [4-(4-Chloro-phenyl)-1-(7-methyl-pyrazolo[1,5-a]pyridin-3-ylmethyl)-piperazin-1-ium] | 2.69
N#CC(C#N)=Cc1ccc(CN2CCN(c3ccc(Cl)cc3)CC2)[nH]1 [4-(4-Chloro-phenyl)-1-[5-(2,2-dicyano-vinyl)-1H-pyrrol-2-ylmethyl]-piperazin-1-ium] | 9.55
Clc1ccc(N2CCN(Cc3cc4ccccn4n3)CC2)cc1 [4-(4-Chloro-phenyl)-1-pyrazolo[1,5-a]pyridin-2-ylmethyl-piperazin-1-ium] | 2.19
